Measured values: patent publication US8846698B2, “Pyrrolo[2,3-d]pyrimidine tropomysin-related kinase inhibitors” (Pfizer Limited, priority 2011, dated 2014)

The compounds below were run against TRKA (Homo sapiens (Human), UniProt P04629) (assay: Isolated TRK enzyme assay (HTRF KinEASE-TK), TRKA). Conditions: read-out: Trka enzyme (IC50).
Type: biochemical

TRKA, sequence (P04629 441-796): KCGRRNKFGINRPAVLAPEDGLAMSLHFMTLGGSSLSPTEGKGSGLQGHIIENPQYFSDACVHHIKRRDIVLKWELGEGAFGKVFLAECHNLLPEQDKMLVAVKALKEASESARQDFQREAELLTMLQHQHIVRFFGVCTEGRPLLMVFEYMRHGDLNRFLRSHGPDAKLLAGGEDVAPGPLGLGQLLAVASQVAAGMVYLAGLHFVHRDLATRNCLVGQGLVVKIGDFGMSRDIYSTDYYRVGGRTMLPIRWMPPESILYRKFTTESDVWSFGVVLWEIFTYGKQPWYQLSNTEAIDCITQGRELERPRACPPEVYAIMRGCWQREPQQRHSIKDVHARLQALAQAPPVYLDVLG

| IC50 [nM] | SMILES |
| --- | --- |
| 751 | CC(C)n1cc(C(=O)c2cncc(NC(=O)c3cnn4c3CCC4)c2)c2cncnc21 [Example 471, 5,6-Dihydro-4H-pyrrolo[1,2-b]pyrazole-3-carboxylic acid [5-(7-isopropyl-7H-pyrrolo[2,3-d]pyrimidine-5-carbonyl)-pyridin-3-yl]-amide] |
| 1720 | CC(C)n1cc(C(=O)c2cncc(NC(=O)c3ncncc3Br)c2)c2cncnc21 [Example 472, 5-Bromo-pyrimidine-4-carboxylic acid [5-(7-isopropyl-7H-pyrrolo[2,3-d]pyrimidine-5-carbonyl)-pyridin-3-yl]-amide] |
| 7280 | CC(C)n1cc(C(=O)c2cncc(NC(=O)c3ccc(C#N)nc3)c2)c2cncnc21 [Example 473, 6-Cyano-N-[5-(7-isopropyl-7H-pyrrolo[2,3-d]pyrimidine-5-carbonyl)-pyridin-3-yl]-nicotinamide] |
| 4420 | CC(C)n1cc(C(=O)c2cncc(NC(=O)c3cnn4cccnc34)c2)c2cncnc21 [Example 474, Pyrazolo[1,5-a]pyrimidine-3-carboxylic acid [5-(7-isopropyl-7H-pyrrolo[2,3-d]pyrimidine-5-carbonyl)-pyridin-3-yl]-amide] |
| 643 | Cc1n[nH]c2ncc(C(=O)Nc3cncc(C(=O)c4cn(C(C)C)c5ncncc45)c3)cc12 [Example 475, 3-Methyl-1H-pyrazolo[3,4-b]pyridine-5-carboxylic acid [5-(7-isopropyl-7H-pyrrolo[2,3-d]pyrimidine-5-carbonyl)-pyridin-3-yl]-amide] |
| 65 | Cc1cccc2cc(C(=O)Nc3cncc(C(=O)c4cn(C(C)C)c5ncncc45)c3)nn12 [Example 476, 7-Methyl-pyrazolo[1,5-a]pyridine-2-carboxylic acid [5-(7-isopropyl-7H-pyrrolo[2,3-d]pyrimidine-5-carbonyl)-pyridin-3-yl]-amide] |
| 3030 | Cc1ocnc1C(=O)Nc1cncc(C(=O)c2cn(C(C)C)c3ncncc23)c1 [Example 477, 5-Methyl-oxazole-4-carboxylic acid [5-(7-isopropyl-7H-pyrrolo[2,3-d]pyrimidine-5-carbonyl)-pyridin-3-yl]-amide] |
| 587 | CC(C)n1cc(C(=O)c2cncc(NC(=O)c3cc4cscc4cn3)c2)c2cncnc21 [Example 478, Thieno[3,4-c]pyridine-6-carboxylic acid [5-(7-isopropyl-7H-pyrrolo[2,3-d]pyrimidine-5-carbonyl)-pyridin-3-yl]-amide] |
| 2160 | Cc1cc(C(=O)Nc2cncc(C(=O)c3cn(C(C)C)c4ncncc34)c2)nc(C)n1 [Example 479, 2,6-Dimethyl-pyrimidine-4-carboxylic acid [5-(7-isopropyl-7H-pyrrolo[2,3-d]pyrimidine-5-carbonyl)-pyridin-3-yl]-amide] |
| 531 | CC(C)n1cc(C(=O)c2cncc(NC(=O)c3cc(C#N)ccn3)c2)c2cncnc21 [Example 480, 4-Cyano-pyridine-2-carboxylic acid [5-(7-isopropyl-7H-pyrrolo[2,3-d]pyrimidine-5-carbonyl)-pyridin-3-yl]-amide] |
| 313 | COCc1cc(C(=O)Nc2cncc(C(=O)c3cn(C(C)C)c4ncncc34)c2)nn1C [Example 481, 5-Methoxymethyl-1-methyl-1H-pyrazole-3-carboxylic acid [5-(7-isopropyl-7H-pyrrolo[2,3-d]pyrimidine-5-carbonyl)-pyridin-3-yl]-amide] |
| 6860 | CC(C)n1cc(C(=O)c2cncc(NC(=O)c3nc(Cl)c(Cl)[nH]3)c2)c2cncnc21 [Example 482, 4,5-Dichloro-1H-imidazole-2-carboxylic acid [5-(7-isopropyl-7H-pyrrolo[2,3-d]pyrimidine-5-carbonyl)-pyridin-3-yl]-amide] |
| 118 | COc1cc(C(=O)Nc2cncc(C(=O)c3cn(C(C)C)c4ncncc34)c2)nc2c(C)nccc12 [Example 483, 4-Methoxy-8-methyl-1,7-naphthyridine-2-carboxylic acid [5-(7-isopropyl-7H-pyrrolo[2,3-d]pyrimidine-5-carbonyl)-pyridin-3-yl]-amide] |
| 192 | CCc1nc(C)c(C(=O)Nc2cncc(C(=O)c3cn(C(C)C)c4ncncc34)c2)o1 [Example 484, 2-Ethyl-4-methyl-oxazole-5-carboxylic acid [5-(7-isopropyl-7H-pyrrolo[2,3-d]pyrimidine-5-carbonyl)-pyridin-3-yl]-amide] |
| 20 | COc1cncc(C(=O)Nc2cncc(C(=O)c3cn(C(C)C)c4ncncc34)c2)c1 [Example 485, N-[5-(7-Isopropyl-7H-pyrrolo[2,3-d]pyrimidine-5-carbonyl)-pyridin-3-yl]-5-methoxy-nicotinamide] |
| 805 | CC(C)n1cc(C(=O)c2cncc(NC(=O)c3cnc4[nH]ncc4c3)c2)c2cncnc21 [Example 486, 1H-Pyrazolo[3,4-b]pyridine-5-carboxylic acid [5-(7-isopropyl-7H-pyrrolo[2,3-d]pyrimidine-5-carbonyl)-pyridin-3-yl]-amide] |

| IC50 [nM] | SMILES |
| --- | --- |
| 9800 | CC(C)n1cc(C(=O)c2cncc(NC(=O)c3cnc4[nH]cnc4c3)c2)c2cncnc21 [Example 487, 3H-Imidazo[4,5-b]pyridine-6-carboxylic acid [5-(7-isopropyl-7H-pyrrolo[2,3-d]pyrimidine-5-carbonyl)-pyridin-3-yl]-amide] |
| 64.6 | COc1nccn2cc(C(=O)Nc3cncc(C(=O)c4cn(C(C)C)c5ncncc45)c3)nc12 [Example 488, 8-Methoxy-imidazo[1,2-a]pyrazine-2-carboxylic acid [5-(7-isopropyl-7H-pyrrolo[2,3-d]pyrimidine-5-carbonyl)-pyridin-3-yl]-amide] |
| 9800 | CC(C)n1cc(C(=O)c2cncc(NC(=O)c3ccncc3)c2)c2cncnc21 [Example 489, N-[5-(7-Isopropyl-7H-pyrrolo[2,3-d]pyrimidine-5-carbonyl)-pyridin-3-yl]-isonicotinamide] |
| 1410 | CC(C)n1cc(C(=O)c2cncc(NC(=O)c3cnc4occc4c3)c2)c2cncnc21 [Example 491, Furo[2,3-b]pyridine-5-carboxylic acid [5-(7-isopropyl-7H-pyrrolo[2,3-d]pyrimidine-5-carbonyl)-pyridin-3-yl]-amide] |
| 1690 | CC(C)c1nnc2ccc(C(=O)Nc3cncc(C(=O)c4cn(C(C)C)c5ncncc45)c3)cn12 [Example 492, 3-Isopropyl-1,2,4-triazolo[4,3-a]pyridine-6-carboxylic acid [5-(7-isopropyl-7H-pyrrolo[2,3-d]pyrimidine-5-carbonyl)-pyridin-3-yl]-amide] |
| 848 | CC(C)n1cc(C(=O)c2cncc(NC(=O)c3cocn3)c2)c2cncnc21 [Example 493, Oxazole-4-carboxylic acid [5-(7-isopropyl-7H-pyrrolo[2,3-d]pyrimidine-5-carbonyl)-pyridin-3-yl]-amide] |
| 9800 | CC(C)n1cc(C(=O)c2cncc(NC(=O)c3cnc4nccn4c3)c2)c2cncnc21 [Example 495, Imidazo[1,2-a]pyrimidine-6-carboxylic acid [5-(7-isopropyl-7H-pyrrolo[2,3-d]pyrimidine-5-carbonyl)-pyridin-3-yl]-amide] |
| 199 | CC(C)n1cc(C(=O)c2cncc(NC(=O)c3cc(C4CC4)on3)c2)c2cncnc21 [Example 496, 5-Cyclopropyl-isoxazole-3-carboxylic acid [5-(7-isopropyl-7H-pyrrolo[2,3-d]pyrimidine-5-carbonyl)-pyridin-3-yl]-amide] |
| 43.5 | CC(C)n1cc(C(=O)c2cncc(NC(=O)c3cc(C4CC4)n[nH]3)c2)c2cncnc21 [Example 497, 5-Cyclopropyl-2H-pyrazole-3-carboxylic acid [5-(7-isopropyl-7H-pyrrolo[2,3-d]pyrimidine-5-carbonyl)-pyridin-3-yl]-amide] |
| 9800 | Cc1ccncc1C(=O)Nc1cncc(C(=O)c2cn(C(C)C)c3ncncc23)c1 [Example 499, N-[5-(7-Isopropyl-7H-pyrrolo[2,3-d]pyrimidine-5-carbonyl)-pyridin-3-yl]-4-methyl-nicotinamide] |
| 25.8 | CC(C)n1cc(C(=O)c2cncc(NC(=O)c3cn(C4CCC4)cn3)c2)c2cncnc21 [Example 500, 1-Cyclobutyl-1H-imidazole-4-carboxylic acid [5-(7-isopropyl-7H-pyrrolo[2,3-d]pyrimidine-5-carbonyl)-pyridin-3-yl]-amide] |
| 201 | CC(C)n1cc(C(=O)c2cncc(NC(=O)c3cc4ccccn4n3)c2)c2cncnc21 [Example 501, Pyrazolo[1,5-a]pyridine-2-carboxylic acid [5-(7-isopropyl-7H-pyrrolo[2,3-d]pyrimidine-5-carbonyl)-pyridin-3-yl]-amide] |
| 6280 | CC(C)n1cc(C(=O)c2cncc(NC(=O)c3ccc4nnnn4c3)c2)c2cncnc21 [Example 502, Tetrazolo[1,5-a]pyridine-6-carboxylic acid [5-(7-isopropyl-7H-pyrrolo[2,3-d]pyrimidine-5-carbonyl)-pyridin-3-yl]-amide] |
| 963 | CC(C)n1cc(C(=O)c2cncc(NC(=O)c3nnc4n3CCCC4)c2)c2cncnc21 [Example 503, 5,6,7,8-Tetrahydro-1,2,4-triazolo[4,3-a]pyridine-3-carboxylic acid [5-(7-isopropyl-7H-pyrrolo[2,3-d]pyrimidine-5-carbonyl)-pyridin-3-yl]-amide] |
| 1020 | Cc1nc(C(=O)Nc2cncc(C(=O)c3cn(C(C)C)c4ncncc34)c2)c(C(F)(F)F)o1 [Example 504, 2-Methyl-5-trifluoromethyl-oxazole-4-carboxylic acid [5-(7-isopropyl-7H-pyrrolo[2,3-d]pyrimidine-5-carbonyl)-pyridin-3-yl]-amide] |

| SMILES | IC50 [nM] |
| --- | --- |
| Cc1cccnc1C(=O)Nc1cncc(C(=O)c2cn(C(C)C)c3ncncc23)c1 [Example 490, 3-Methyl-pyridine-2-carboxylic acid[5-(7-isopropyl-7H-pyrrolo[2,3-d]pyrimidine-5-carbonyl)-pyridin-3-yl]-amide] | 9800 |
| CC(C)n1cc(C(=O)c2cncc(NC(=O)c3ncccc3Cl)c2)c2cncnc21 [Example 494, 3-Chloro-pyridine-2-carboxylic acid[5-(7-isopropyl-7H-pyrrolo[2,3-d]pyrimidine-5-carbonyl)-pyridin-3-yl]-amide] | 2570 |
| Cc1cc2nnc(C(=O)Nc3cncc(C(=O)c4cn(C(C)C)c5ncncc45)c3)c(C)n2n1 [Example 498] | 2340 |
